Legend:
[1] = test system: Spleen cells prepared from male LEW/CrlCrlj rats (B cell proliferation); assay: Rat B cell proliferation inhibition test (anti-rat IgM, [3H]thymidine); type: cell-based; settings: anti-rat IgM 3 μg/well, 48 hours culture
Experimental: 4. Rat B Cell Proliferation Inhibition Test
Spleen cells (1.0×10^5 cells/well) prepared from male LEW/CrlCrlj rats (Charles River Laboratories, Japan, Inc.), mouse F(ab′)2 fragment anti-rat IgM (3 μg/well, SouthernBiotech Associates, Inc., Catalogue No. 3082-14) and the test compound dissolved in DMSO (final DMSO concentration 0.1%) were mixed in a 96-well plate using a 10% FCS-containing RPMI-1640 culture medium (total 200 μL). They were cultured in a CO2 incubator for 48 hours and [^3H]thymidine (925 GBq/mmol, Moravek Biochemicals, Inc., Catalogue No. MT6038) was added thereto at 0.037 MBq/well at 4 hours before completion of culture. Cells were harvested in a GF/C glass filter using a cell harvester, and a radioactivity on the filter was measured using a liquid scintillation counter.

Human PI3Kα = target: T1, Human PI3Kα (Homo sapiens, UniProt P42336); assay: PI3Kα enzyme inhibitory activity (Kinase-Glo Plus luminescence); type: biochemical; settings: human PI3Kα 12 ng/well, phosphatidylinositol 0.2 μg/well, 37° C. 3 hours
T1 construct: purchased Millipore Corporation 14-602
Experimental: 2. PI3Kα Enzyme Inhibitory Activity
Human PI3Kα (12 ng/well, Millipore Corporation, Catalogue No. 14-602), phosphatidylinositol (0.2 μg/well), and the test compound were mixed in a 384-well plate in a reaction buffer (50 mM Hepes, 10 mM NaCl, 10 mM MgCl2, 2 mM EGTA, 2 mM DTT, pH 7.3) (total 10 μl), and incubated at 37° C. for 3 hours. After the reaction, 10 μL of a Kinase-Glo Plus reagent (Promega, Catalogue No. V3772) was added thereto, and a luminescence was measured with a luminometer.

human PI3Kδ enzyme = target: T2, human PI3Kδ enzyme (Homo sapiens, UniProt O00329); assay: PI3Kδ enzyme inhibitory activity (PI3-Kinase HTRF Assay kit); type: biochemical; settings: human PI3Kδ 10 ng/well, ATP 30 μM, PIP2 10 μM, room temperature 30 minutes
T2 construct: purchased Millipore Corporation 14-604
Experimental: 1. PI3Kδ Enzyme Inhibitory Activity
For the experiment, a PI3-Kinase HTRF Assay kit (Millipore Corporation, Catalogue No. 33-016) and a human PI3Kδ enzyme (Millipore Corporation, Catalogue No. 14-604) were used. The measurement method was in accordance with the appended instructions. The overview thereof is as follows.
PI3Kδ (10 ng/well), phosphatidylinositol-4,5-bisphosphate (10 μM), ATP (30 μM), and the test compound were mixed in a 384-well plate (total 20 μL), and incubated at room temperature for 30 minutes. EDTA and biotinylated phosphatidylinositol-3,4,5-triphosphate were added thereto to stop the reaction. Thereafter, a Europium labeled anti-GST antibody, a GST bond GRP1 PH domain, and streptavidin-APC were added thereto, followed by incubation overnight. An HTRF ratio was measured using an HTRF plate reader.

T2 sequence (O00329 whole entry): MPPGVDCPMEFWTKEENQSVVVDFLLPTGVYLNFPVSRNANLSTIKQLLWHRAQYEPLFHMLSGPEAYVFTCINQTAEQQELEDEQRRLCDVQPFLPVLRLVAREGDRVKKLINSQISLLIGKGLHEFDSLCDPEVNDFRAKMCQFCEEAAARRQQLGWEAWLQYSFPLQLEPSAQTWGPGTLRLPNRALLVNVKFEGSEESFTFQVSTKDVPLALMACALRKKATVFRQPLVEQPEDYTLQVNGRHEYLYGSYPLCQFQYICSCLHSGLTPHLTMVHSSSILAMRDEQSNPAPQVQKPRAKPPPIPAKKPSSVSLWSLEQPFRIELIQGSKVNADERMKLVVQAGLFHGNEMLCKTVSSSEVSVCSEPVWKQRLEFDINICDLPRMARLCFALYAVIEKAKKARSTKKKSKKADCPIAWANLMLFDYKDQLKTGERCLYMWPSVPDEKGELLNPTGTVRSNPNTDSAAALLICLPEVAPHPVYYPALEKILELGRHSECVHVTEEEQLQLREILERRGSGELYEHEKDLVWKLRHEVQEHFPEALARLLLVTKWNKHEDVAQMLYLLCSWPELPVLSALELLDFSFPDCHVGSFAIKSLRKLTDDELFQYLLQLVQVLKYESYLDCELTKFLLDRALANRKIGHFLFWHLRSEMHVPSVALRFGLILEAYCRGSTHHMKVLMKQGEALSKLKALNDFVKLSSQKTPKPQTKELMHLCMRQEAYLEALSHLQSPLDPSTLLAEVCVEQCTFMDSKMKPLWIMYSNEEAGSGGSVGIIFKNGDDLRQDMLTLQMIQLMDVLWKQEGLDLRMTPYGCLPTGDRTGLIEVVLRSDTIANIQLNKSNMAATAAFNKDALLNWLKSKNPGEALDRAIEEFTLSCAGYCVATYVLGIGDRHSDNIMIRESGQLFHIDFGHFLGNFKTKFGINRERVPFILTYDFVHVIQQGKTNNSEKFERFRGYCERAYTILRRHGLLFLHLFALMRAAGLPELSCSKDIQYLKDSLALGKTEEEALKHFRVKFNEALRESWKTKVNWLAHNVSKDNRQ
T2 sequence (P27986 whole entry partner): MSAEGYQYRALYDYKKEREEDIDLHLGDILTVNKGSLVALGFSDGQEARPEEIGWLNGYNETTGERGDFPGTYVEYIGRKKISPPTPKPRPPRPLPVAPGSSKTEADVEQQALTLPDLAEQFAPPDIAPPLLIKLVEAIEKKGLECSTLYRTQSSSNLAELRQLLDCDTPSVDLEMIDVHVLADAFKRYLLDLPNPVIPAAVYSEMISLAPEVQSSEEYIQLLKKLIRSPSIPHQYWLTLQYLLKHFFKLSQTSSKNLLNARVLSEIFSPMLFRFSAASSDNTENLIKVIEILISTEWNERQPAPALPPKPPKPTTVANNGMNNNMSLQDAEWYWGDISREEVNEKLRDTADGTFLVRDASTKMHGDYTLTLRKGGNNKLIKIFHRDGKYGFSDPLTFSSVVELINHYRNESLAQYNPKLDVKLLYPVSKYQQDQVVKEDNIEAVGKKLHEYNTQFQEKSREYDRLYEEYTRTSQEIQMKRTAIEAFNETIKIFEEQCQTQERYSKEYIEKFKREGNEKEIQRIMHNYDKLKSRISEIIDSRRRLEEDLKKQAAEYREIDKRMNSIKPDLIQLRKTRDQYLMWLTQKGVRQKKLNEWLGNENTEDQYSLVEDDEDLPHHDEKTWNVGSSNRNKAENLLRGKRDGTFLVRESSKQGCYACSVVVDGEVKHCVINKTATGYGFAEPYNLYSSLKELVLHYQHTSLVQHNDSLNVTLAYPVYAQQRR
T1 sequence (P42336 whole entry): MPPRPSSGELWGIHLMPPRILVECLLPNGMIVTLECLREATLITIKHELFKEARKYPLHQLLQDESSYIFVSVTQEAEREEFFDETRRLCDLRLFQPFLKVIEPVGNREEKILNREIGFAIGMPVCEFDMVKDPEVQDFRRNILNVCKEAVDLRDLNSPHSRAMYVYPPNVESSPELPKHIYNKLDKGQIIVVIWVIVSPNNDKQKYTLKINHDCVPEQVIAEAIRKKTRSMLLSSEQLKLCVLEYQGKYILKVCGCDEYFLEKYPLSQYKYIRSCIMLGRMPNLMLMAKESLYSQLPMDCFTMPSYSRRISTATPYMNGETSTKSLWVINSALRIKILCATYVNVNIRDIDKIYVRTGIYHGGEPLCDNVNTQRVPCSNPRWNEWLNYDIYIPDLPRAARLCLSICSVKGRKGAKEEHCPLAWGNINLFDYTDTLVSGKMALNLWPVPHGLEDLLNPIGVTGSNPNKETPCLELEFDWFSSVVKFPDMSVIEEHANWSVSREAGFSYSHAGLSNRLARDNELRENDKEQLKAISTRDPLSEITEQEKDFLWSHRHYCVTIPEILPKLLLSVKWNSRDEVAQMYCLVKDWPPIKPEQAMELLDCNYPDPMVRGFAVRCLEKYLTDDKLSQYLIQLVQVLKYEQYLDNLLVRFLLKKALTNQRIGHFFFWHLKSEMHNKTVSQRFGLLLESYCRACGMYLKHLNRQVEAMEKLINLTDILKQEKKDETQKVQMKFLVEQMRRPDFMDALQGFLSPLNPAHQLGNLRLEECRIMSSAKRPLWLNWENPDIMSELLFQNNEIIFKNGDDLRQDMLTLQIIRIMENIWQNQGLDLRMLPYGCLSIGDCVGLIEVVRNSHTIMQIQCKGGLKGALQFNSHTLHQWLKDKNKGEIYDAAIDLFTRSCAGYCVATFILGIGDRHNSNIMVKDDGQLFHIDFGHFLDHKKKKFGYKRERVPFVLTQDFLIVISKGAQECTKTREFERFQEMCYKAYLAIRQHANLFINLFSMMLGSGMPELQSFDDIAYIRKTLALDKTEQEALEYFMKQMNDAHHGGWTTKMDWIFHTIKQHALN
T1 sequence (P27986 whole entry partner): as the sequence (P27986 whole entry partner) above

Row | Compound | IC50 (Human PI3Kα) [nM] | IC50 (human PI3Kδ enzyme) [nM] | IC50 [1] [nM]
1 | CN1CC(C(=O)N2CC[C@H](Oc3cc(-n4c(C(F)F)nc5ccccc54)nc(N4CCOCC4)n3)C2)CC1=O (stereo partly drawn) [A451] | 2200 | 35 | 1.2
2 | CC(C)(O)CNC12CCC(CNc3nc(N4CCOCC4)cc(-n4c(C(F)F)nc5ccccc54)n3)(CC1)CC2 [Example 85, 1-({4-[({4-[2-(difluoromethyl)-1H-benzimidazol-1-yl]-6-(morpholin-4-yl)pyrimidin-2-yl}amino)methyl]bicyclo[2.2.2]oct-1-yl}amino)-2-methylpropan-2-ol] | 5500 | 21 | 2.6
3 | COC(=O)N[C@@H]1CCN([C@H]2CC[C@H](Nc3nc(N4CCOCC4)cc(-n4c(C(F)F)nc5ccccc54)n3)CC2)C1=O [Example 441] | 1400 | 48 | 1.8
4 | CCOC(=O)N1CCN(c2ccc(CNc3nc(N4CCOCC4)cc(-n4c(C(F)F)nc5ccccc54)n3)cc2)CC1 [Example 158] | 6700 | 11 | 10
5 | FC(F)c1nc2ccccc2n1-c1cc(N[C@H]2C[C@@H]3C[C@H](N4CCOCC4)C[C@@H]3C2)nc(N2CCOCC2)n1 [Example 195] | > 10000 | 4.1 | 3
6 | O=C(CC1CCOCC1)N1CC[C@H](Nc2cc(-n3c(C(F)F)nc4ccccc43)nc(N3CCOCC3)n2)C1 [A300] | 6500 | 26 | 2.6
7 | O=C(CN1CCCCC1)N1CC[C@H](Nc2cc(-n3c(C(F)F)nc4ccccc43)nc(N3CCOCC3)n2)C1 [A475] | 1400 | 25 | 1.1
8 | O=C(C1CCOCC1)N1CC[C@H](Nc2cc(-n3c(C(F)F)nc4ccccc43)nc(N3CCOCC3)n2)C1 [A293] | 3200 | 19 | 2.6
9 | O=C(CC1CCCO1)N1CC[C@H](Nc2cc(-n3c(C(F)F)nc4ccccc43)nc(N3CCOCC3)n2)C1 (stereo partly drawn) [A299] | 4900 | 25 | 2.5
10 | C[C@H]1COCCN1c1cc(-n2c(C(F)F)nc3ccccc32)nc(NCC2CCN(C3CCOCC3)CC2)n1 [Example 38] | 2200 | 23 | 2.9
11 | COC(=O)N1CCC(C(=O)N2CC[C@H](Nc3cc(-n4c(C(F)F)nc5ccccc54)nc(N4CCOCC4)n3)C2)CC1 [A298] | 3500 | 28 | 1.2
12 | O=C([C@H]1CCCO1)N1CC[C@H](Nc2cc(-n3c(C(F)F)nc4ccccc43)nc(N3CCOCC3)n2)C1 [A290] | 3800 | 7.4 | 2.2

Second part, led by results:

Row | IC50 (Human PI3Kα) [nM] | IC50 (human PI3Kδ enzyme) [nM] | Compound | IC50 [1] [nM]
13 | > 10000 | 11 | COC(=O)N[C@@H]1CCN([C@H]2CC[C@H](Oc3cc(-n4c(C(F)F)nc5ccccc54)nc(N4CCOCC4)n3)CC2)C1=O [Example 389] | 4.4
14 | > 10000 | 5.2 | CC1(NCC(=O)N[C@H]2CC[C@H](Oc3cc(-n4c(C(F)F)nc5ccccc54)nc(N4CCOCC4)n3)CC2)CC1 [Example 137] | 4.6
15 | > 10000 | 13 | NC1(C(=O)N[C@H]2CC[C@H](Oc3cc(-n4c(C(F)F)nc5ccccc54)nc(N4CCOCC4)n3)CC2)CCC1 [Example 215] | 6.7
16 | > 10000 | 4.9 | COC(=O)N[C@H]1CCN([C@H]2CC[C@H](Oc3cc(-n4c(C(F)F)nc5ccccc54)nc(N4CCOCC4)n3)CC2)C1=O [Example 87, methyl{(3S)-1-[trans-4-({6-[2-(difluoromethyl)-1H-benzimidazol-1-yl]-2-(morpholin-4-yl)pyrimidin-4-yl}oxy)cyclohexyl]-2-oxopyrrolidin-3-yl}carbamate] | 3.5
17 | 6600 | 4.7 | O=C(CNC1CCCC1)N[C@H]1CC[C@H](Oc2cc(-n3c(C(F)F)nc4ccccc43)nc(N3CCOCC3)n2)CC1 [Example 134] | 3.4
18 | > 10000 | 4.8 | CN(CC(=O)NC1CCC(Oc2cc(-n3c(C(F)F)nc4ccccc43)nc(N3CCOCC3)n2)CC1)C1CCC1 (stereo not drawn) [Example 196] | 3.6

Source: US8912180B2, “Heterocyclic compound” (Astellas Pharma Inc., priority 2010, dated 2014)
